Assays:
[1] = target: T1, rat kidney medullary V2 receptors (Rattus norvegicus, UniProt Q00788); test: Binding Assay to Rat Kidney Medullary V2 Receptors; conditions: rat kidney medullary V2
T1 construct: Medullary tissues from rat kidneys are dissected out; from tissue; host or cells: rat kidney medulla membranes
Protocol: Medullary tissues from rat kidneys are dissected out, cut into small pieces and soaked in a […] sodium chloride solution containing 1.0 mM EDTA with many changes of the liquid phase, until the solution is clear of blood. The tissue is homogenized in a 0.25M sucrose solution containing 1.0 mM EDTA and 0.1 mM PMSF using a Potter-Elvehjem homogenizer with a teflon pestle. The homogenate is filtered through several layers (4 layers) of cheese cloth. The filtrate is rehomogenized using a dounce homogenizer, with a tight fitting pestle. The final homogenate is centrifuged at 1500×g for 15 min. The nuclear pellet is discarded and the supernatant fluid recentrifuged at 40,000×g for 30 min. The resulting pellet formed contains a dark inner part with the exterior, slightly pink. The pink outer part is suspended in a small amount of 50.0 mM Tris.HCl buffer, pH 7.4. The protein content is determined by the Lowry's method (Lowry et al., J. Biol. Chem., 1953). The membrane suspension is stored at -70° C., in 50.0 mM Tris.HCl, containing 0.2% inactivated BSA and 0.1 mM PMSF in aliquots of 1.0 ml containing 10.0 mg protein per ml of suspension until use in subsequent binding experiments.
For binding experiments, the following is added in μl volume to wells of a 96 well format of a microtiter plate: 100.0 μl of 100.0 mM Tris.HCl buffer containing 0.2% heat inactivated BSA, 10.0 mM MgCl2 and a mixture of protease inhibitors: leupeptin, 1.0 mg %; aprotinin, 1.0 mg %; 1,10-phenanthroline, 2.0 mg %; trypsin inhibitor, 10.0 mg % and 0.1 mM PMSF, 20.0 μl of [^3 H] Arginine^8, vasopressin (S.A. 75.0 Ci/mmole) at 0.8 nM and the reaction initiated by the addition of 80.0 μl of tissue membranes (200.0 μg tissue protein). The plates are left undisturbed on the bench top for 120 min to reach equilibrium. Non-specific binding is assessed in the presence of 1.0 μM of unlabeled ligand, added in 20 μl volume. For test compounds, these are solubilized in 50% dimethylsulfoxide (DMSO) and added in 20.0 μl volume to a final incubation volume of 200 μl. Upon completion of binding, the content of each well is filtered off, using a Brandel® cell Harvester (Gaithersburg, Md.). The radioactivity trapped on the filter disk by the ligand-receptor complex is assessed by liquid scintillation counting in a Packard LS Counter, with an efficiency of 65% for tritium.

[2] = target: vasopressin V1 receptor (rat liver plasma membranes) (Rattus norvegicus, UniProt P30560); test: Binding Assay to Rat Hepatic V1 Receptors; conditions: rat hepatic V1
vasopressin V1 receptor (rat liver plasma membranes), sequence (P30560 whole entry): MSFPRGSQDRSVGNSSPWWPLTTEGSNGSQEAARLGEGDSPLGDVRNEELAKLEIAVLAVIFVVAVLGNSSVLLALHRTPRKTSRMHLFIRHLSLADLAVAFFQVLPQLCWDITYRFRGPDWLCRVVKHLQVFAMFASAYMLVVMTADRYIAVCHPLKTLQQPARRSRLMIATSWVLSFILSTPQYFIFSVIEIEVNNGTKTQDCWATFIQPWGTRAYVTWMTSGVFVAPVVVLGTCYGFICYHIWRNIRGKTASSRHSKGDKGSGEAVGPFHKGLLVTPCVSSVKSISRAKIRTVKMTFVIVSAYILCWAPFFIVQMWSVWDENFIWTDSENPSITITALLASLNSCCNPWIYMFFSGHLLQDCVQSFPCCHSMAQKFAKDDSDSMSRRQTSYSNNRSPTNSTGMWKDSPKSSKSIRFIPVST
Protocol: Rat liver plasma membranes expressing the vasopressin V1 receptor subtypes are isolated by sucrose density gradient according to the method described by Lesko et al., (1973). These membranes are quickly suspended in 50.0 mM Tris.HCl buffer, pH 7.4, containing 0.2% bovine serum albumin (BSA) and 0.1 mM phenylmethylsulfonylfluoride (PMSF) and kept frozen at -70° C. until used in subsequent binding experiments. For binding experiments, the following is added to the wells of a ninety-six well format microtiter plate: 100 μl of 100.0 mM Tris.HCl buffer containing 10.0 mM MgCl2, 0.2% heat inactivated BSA and a mixture of protease inhibitors: leupeptin, 1.0 mg %; aprotinin, 1.0 mg %; 1,10-phenanthroline,2.0 mg %; trypsin inhibitor, 10.0 mg % and 0.1 mM PMSF, 20.0 μl of [phenylalanyl-3,4,5,-^3 H] vasopressin (S.A. 45.1 Ci/mmole) at 0.8 nM, and the reaction initiated by the addition of 80 μl of tissue membranes containing 20 μg of tissue protein. The plates are kept undisturbed on the bench top at room temperature for 120 min. to reach equilibrium. Non-specific samples are assayed in the presence of 0.1 μM of the unlabeled antagonist phenylalanylvasopressin, added in 20.0 μl volume.
For test compounds, these are solubilized in 50% dimethylsulfoxide (DMSO) and added in 20.0 μl volume to a final incubation volume of 200 μl. Upon completion of binding, the content of each well is filtered off, using a Brandel® cell Harvester (Gaithersburg, Md.). The radioactivity trapped on the filter disk by the ligand-receptor complex is assessed by liquid scintillation counting in a Packard LS Counter, with an efficiency of 65% for tritium.

[3] = test system: vasopressin V1; test: Vasopressin V1 Antagonist Activity in Conscious Rats (vasopressin vasopressor response); assay type: in vivo, rat (spontaneously hypertensive rats); design: Average Change: unit not given here
Protocol: Conscious rats are restrained in a supine position with elastic tape. The area at the base of the tail is locally anesthetized by subcutaneous infiltration with 2% procaine (0.2 ml). Using aseptic technique the ventral caudal tail artery is isolated and a cannula made of PE 10 and 20 (heat-fused) tubing is passed into the lower abdominal aorta. The cannula is secured, heparinized (1000 i.u./cc), sealed and the wound closed with one or two stitches of Dexon 4-0. The caudal vein is also cannulated in the same manner for intravenous drug administration. The duration of the surgery is approximately 5 minutes. Additional local anesthesia (2% procaine or lidocaine) is provided as needed.
The animals are placed in plastic restraining cages in an upright position. The cannula is attached to a Statham P23Db pressure transducer and pulsatile blood pressure is recorded. […] The vasopressin injections are repeated 30, 60, 90, 120, 180, 240 and 300 min. later. Percentage of antagonism by the compound is calculated using the pre-drug vasopressin vasopressor response as 100%.

[4] = test system: vasopressin V2; test: Vasopressin V2 Antagonist Activity in Conscious Hydrated Rats (diuretic effect); assay type: in vivo, normal Sprague-Dawley rats; conditions: 30 mg/kg orally, AVP 0.4 μg/kg i.p.
Protocol: Conscious hydrated rats are treated with compounds under study from 0.1 to 100 mg/kg orally or vehicle. Two to four rats are used for each compound. One hour later, arginine vasopressin (AVP, antidiuretic hormore, ADH) dissolved in peanut oil is administered at 0.4 μg/kg intraperitoneally. Two rats in each test would not receive arginine vasopressin but only the vehicle (peanut oil) to serve as water-loading control. Twenty minutes later each rat is given 30 mL/kg of deionized water orally by gavage and is placed individually in a metabolic cage equipped with a funnel and a graduated glass cylinder to collect urine for four hours. Urine volume is measured and osmolality analyzed by use of a Fiske One-Ten osmometer (Fiske Assoc., Norwood, Mass., USA). Urinary sodium, potassium, and chloride are analyzed by use of ion-specific electrodes in a Beckman E3 (Electrolyte 3) Analyzer. In the following results, […] and decreased osmolality relative to AVP-control indicates activity.

[5] = 10 mg/kg i.v., VAS 0.01 i.u./kg, 30 min
[6] = 10 mg/kg i.v., VAS 0.01 i.u./kg, 60 min
[7] = 10 mg/kg i.v., VAS 0.01 i.u./kg, 90 min
[8] = 10 mg/kg i.v., VAS 0.01 i.u./kg, 120 min
[9] = 10 mg/kg i.v., VAS 0.01 i.u./kg, 180 min
[10] = 10 mg/kg i.v., VAS 0.01 i.u./kg, 240 min
[11] = 10 mg/kg i.v., VAS 0.01 i.u./kg, 300 min
[12] = 10 mg/kg i.v., VAS 0.02 i.u./kg, 30 min
[13] = 10 mg/kg i.v., VAS 0.02 i.u./kg, 60 min
[14] = 10 mg/kg i.v., VAS 0.02 i.u./kg, 90 min
[15] = 10 mg/kg i.v., VAS 0.02 i.u./kg, 120 min
[16] = 10 mg/kg i.v., VAS 0.02 i.u./kg, 180 min
[17] = 10 mg/kg i.v., VAS 0.02 i.u./kg, 240 min
[18] = 10 mg/kg i.v., VAS 0.02 i.u./kg, 300 min
[19] = 30 mg/kg p.o., VAS 0.01 i.u./kg, 30 min
[20] = 30 mg/kg p.o., VAS 0.01 i.u./kg, 60 min
[21] = 30 mg/kg p.o., VAS 0.01 i.u./kg, 90 min
[22] = 30 mg/kg p.o., VAS 0.01 i.u./kg, 120 min
[23] = 30 mg/kg p.o., VAS 0.01 i.u./kg, 180 min
[24] = 30 mg/kg p.o., VAS 0.01 i.u./kg, 240 min
[25] = 30 mg/kg p.o., VAS 0.02 i.u./kg, 30 min
[26] = 30 mg/kg p.o., VAS 0.02 i.u./kg, 60 min
[27] = 30 mg/kg p.o., VAS 0.02 i.u./kg, 90 min
[28] = 30 mg/kg p.o., VAS 0.02 i.u./kg, 120 min
[29] = 30 mg/kg p.o., VAS 0.02 i.u./kg, 180 min
[30] = 30 mg/kg p.o., VAS 0.02 i.u./kg, 240 min

T1 sequence (Q00788 whole entry): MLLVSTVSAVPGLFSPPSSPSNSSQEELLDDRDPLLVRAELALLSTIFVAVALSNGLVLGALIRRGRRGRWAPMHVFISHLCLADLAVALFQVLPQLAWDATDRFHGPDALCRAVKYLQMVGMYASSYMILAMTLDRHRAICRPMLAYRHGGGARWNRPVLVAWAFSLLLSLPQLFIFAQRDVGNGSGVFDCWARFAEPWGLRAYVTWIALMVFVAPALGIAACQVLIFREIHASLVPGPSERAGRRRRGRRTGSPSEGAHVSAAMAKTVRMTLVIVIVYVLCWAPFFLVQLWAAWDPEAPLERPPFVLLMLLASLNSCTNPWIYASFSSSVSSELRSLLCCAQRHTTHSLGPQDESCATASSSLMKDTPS

## O=C(Nc1ccc(C(=O)N2Cc3ccccc3Cc3ccccc32)cc1)c1ccccc1Cl [Example 14, N-[4-[(6,11-Dihydro-5H-dibenz[b,e]azepin-5-yl)-carbonyl]phenyl]-2-chlorobenzamide]
[1]
  IC50: 66 nM
[2]
  IC50: 57 nM
[3]; [5]
  Average Change: 11
  Inhibition: 51%
[3]; [6]
  Average Change: 12
  Inhibition: 47%
[3]; [7]
  Average Change: 13.5
  Inhibition: 40%
[3]; [8]
  Average Change: 16
  Inhibition: 29%
[3]; [9]
  Average Change: 21.5
  Inhibition: 4%
[3]; [10]
  Average Change: 26.5
  Inhibition: -18%
[3]; [11]
  Average Change: 24.5
  Inhibition: -9%
[3]; [12]
  Average Change: 23
  Inhibition: 56%
[3]; [13]
  Average Change: 22
  Inhibition: 58%
[3]; [14]
  Average Change: 29.5
  Inhibition: 43%
[3]; [15]
  Average Change: 23.5
  Inhibition: 55%
[3]; [16]
  Average Change: 30.5
  Inhibition: 41%
[3]; [17]
  Average Change: 32
  Inhibition: 38%
[3]; [18]
  Average Change: 33
  Inhibition: 37%
[4]
  Osmolality: 739 mOsm/kg
  Urine Volume: 13.1 ml/4 hrs.

## O=C(Cc1ccccc1Cl)Nc1ccc(C(=O)N2Cc3ccccc3Cc3ccccc32)cc1 [Example 16, 2-Chloro-N-[4-[(6,11-dihydro-5H-dibenz[b,e]azepin-5-yl)carbonyl]phenyl]benzeneacetamide]
[1]
  IC50: 65 nM
[2]
  IC50: 53 nM
[3]; [19]
  Average Change: 25
  Inhibition: 15%
[3]; [20]
  Average Change: 30.5
  Inhibition: -3%
[3]; [21]
  Average Change: 28.5
  Inhibition: 3%
[3]; [22]
  Average Change: 23.5
  Inhibition: 20%
[3]; [23]
  Average Change: 30.5
  Inhibition: -3%
[3]; [24]
  Average Change: 30
  Inhibition: -2%
[3]; [25]
  Average Change: 27.5
  Inhibition: 17%
[3]; [26]
  Average Change: 29
  Inhibition: 12%
[3]; [27]
  Average Change: 40.5
  Inhibition: -23%
[3]; [28]
  Average Change: 29.5
  Inhibition: 11%
[3]; [29]
  Average Change: 26
  Inhibition: 21%
[3]; [30]
  Average Change: 30
  Inhibition: 9%
[4]
  Osmolality: 1257 mOsm/kg
  Urine Volume: 7.2 ml/4 hrs.

— patent publication US5834461A, “Tricyclic benzazepine vasopressin antagonists” (American Cyanamid Company, priority 1997, dated 1998)
